{
  "source": "patent US8399487B2",
  "about": "“Pyrazole compounds and uses thereof” (Dart NeuroScience (Cayman) Ltd., priority 2006, dated 2013)",
  "system": "contextual memory in C57BL/6 male mice",
  "test": "Contextual Memory Assay: Fear Conditioning",
  "type": "in vivo",
  "settings": "I.P. 0.01 mg/kg, injected 20 minutes before training, 2 training trials, tested 24 hours after training (FIG. 1)",
  "from_the_text": "The ability of a compound to modulate cognitive behavior can be evaluated using the following assay to measure memory after contextual fear conditioning.\nContextual Memory Assay: Fear Conditioning\nContextual memory is a form of Pavlovian fear conditioning in which a naïve mouse is placed into a novel chamber (context) containing distinct visual, olfactory and tactile cues. After a couple of minutes of acclimation, the mouse receives a brief, mild electric shock to its feet. From this negative experience, the mouse will remember for months that that chamber is dangerous. When placed back into the same context at some later time after training, the mouse's natural response to danger is to “freeze,” sitting stone still for many seconds. This is similar to what happens to humans when they experience fear. The percent of time during an observation period that the mouse spends frozen represents a quantitative measure (memory score) of its memory of the context. […]\nTo assess contextual memory, a modified contextual fear conditioning task originally developed for evaluation of memory in CREB knock-out mice was used (Bourtchouladze, R., et. al., Cell, 1994, 79, 59-68). […] 24 hours after training, the mouse was placed into the same training chamber and contextual memory was assessed by scoring freezing behavior (‘freezing’ serves as memory score). […]",
  "note": "Entries after “also recorded” stand apart in the source; their conditions may differ.",
  "data": [
    {"smiles": "CN(C)C(=O)c1ccc(-c2cc(C(F)(F)F)n(C)n2)s1", "note": "[Compound 162, 5-(1-Methyl-5-trifluoromethyl-1H-pyrazol-3-yl)-thiophene-2-carboxylic acid dimethylamide]", "values": [
      {"measurement": "contextual memory (freezing to context 24 hr after training)", "result": "significantly enhanced contextual memory; also recorded: significantly facilitated freezing to context"}
    ]},
    {"smiles": "Cn1nc(-c2ccc(C(=O)N3CCCCC3)s2)cc1C(F)(F)F", "note": "[Compound 177, [5-(1-Methyl-5-trifluoromethyl-1H-pyrazol-3-yl)-thiophen-2-yl]-piperidin-1-yl-methanone]", "values": [
      {"measurement": "contextual memory (freezing to context 24 hr after training)", "result": "significantly enhanced contextual memory; also recorded: significantly facilitated freezing to context"}
    ]}
  ]
}
